Source: the COVID Moonshot data (paper PMC11187573), “Identification of SARS-CoV-2 Mpro inhibitors through deep reinforcement learning for de novo drug design and computational chemistry approaches” (RSC Medicinal Chemistry, 2024)

Experiments:
[1] = target: SARS-CoV-2 Main Protease (SARS-CoV-2) (UniProt P0DTD1)
[2] = target: SARS-CoV-2 Main Protease (SARS-CoV-2) (UniProt P0DTD1); remark: listed apart in the source

| Compound | inhibition ([1]; 50.0 µM) [%] | relative solubility at 20 uM | relative solubility at 100 uM | inhibition ([2]; 20.0 µM) [%] | inhibition ([2]; 50.0 µM) [%] | inhibition ([1]; 20.0 µM) [%] | IC50 [1] [µM] | IC50 [2] [µM] |
| --- | --- | --- | --- | --- | --- | --- | --- | --- |
| Cc1nnc(NC(=O)Cc2cccc(Cl)c2)n1C | -14 | 1 | 1 | -6.05 | 0.874 |  |  |  |
| O=C(CCn1ccnn1)NC(CN1CCOCC1)c1ccccc1 (centres undefined) | 0 | 1 | 1 | 2.31 | 5.19 | 0 |  |  |
| Cc1nn(C(C)C)c(C)c1CC(=O)Nc1nncn1C1CC1 | 5.29 | 1 | 1 | -5.19 | -6.89 |  |  |  |
| O=C(Nc1cnccc1Cl)c1cccc(Cl)c1 | 10.5 | 1 | 1 | -2.3 | 3.23 | 0 |  |  |
| CCn1c(=O)n(CC(=O)Nc2c(C)ccnc2C)c2ccccc21 | 0 | 1 | 1 | -1.64 | -2.86 |  |  |  |
| CN(C)C(=O)C[C@@H]1CN(C(=O)c2cnn3c2CCC3)c2ccc(Cl)cc21 (stereo in doubt) |  | 1 | 1 | -17.5 | -10.8 | 0 |  |  |
| Cc1ccc(O)cc1NC(=O)C(C)(C)c1cccc(F)c1 | -0.631 | 1 | 0.92 | 1.12 | -11 |  |  |  |
| O=C(CSC1=NCCS1)c1cc(Cl)ccc1Cl | 44.8 | 0.77 | 0.64 | 5.24 | 2.86 |  |  |  |
| O=C(CCl)N1CCN(C(c2ccccc2)C2CCOCC2)CC1 (centres undefined) | 84.8 | 1 | 0.99 | 80.8 | 103 |  | 1.69 | 20.7 |
| O=C(c1cc(=O)[nH]c2ccccc12)N1CCN(S(=O)(=O)c2ccccc2)CC1 | 3.07 | 0.98 | 0.97 | 16.1 | 40.7 |  |  |  |
| Cc1ccnn1CC(=O)NCC(NC(=O)C(C)C#N)c1ccccc1 (centres undefined) | -26.1 | 0.99 | 1 | -13.2 | -6.86 |  |  |  |
| O=C(CCl)Nc1cccc(-c2ccc3c(c2)CCCC3)c1 | 47.7 | 0.9 | 0.87 | 10.8 | 15.2 |  |  |  |
| Cc1ccnc(C)c1NC(=O)C1CC2CC2C1 (centres undefined) | 0 | 1 | 1 | 10.2 | 15.6 |  |  |  |
| CC1(C)Cc2cccc(OCCNC(=O)c3cc(=O)[nH]c4ccc(Cl)cc34)c2O1 | 18.7 | 0.97 | 0.91 | 5.99 | 28.8 |  |  |  |
| NS(=O)(=O)c1ccc(N2CCC(N3CCCCC3)CC2)cc1 | 0 | 1 | 1 |  | 7.79 | 0 |  |  |
| O=C(Nc1ccccc1)Nc1cnc2ccc([N+](=O)[O-])cc2n1 | 0.772 | 0.86 | 0.84 | -15.3 | 9.06 |  |  |  |
| N#Cc1ccc(S(=O)(=O)N2CCN(C(=O)c3cc(=O)[nH]c4ccc(F)cc34)CC2)cc1 | 33.7 | 0.98 | 0.98 | 2.67 | 10.4 |  |  |  |
| Cc1ncncc1NC(=O)C(c1cccc(Cl)c1)C(C)C (centres undefined) | 46.5 | 1 | 0.99 | 3.52 | 20.6 |  |  |  |
| C=CC(=O)N(C1CCCC(C(C)C)CC1)C(C(=O)NC(C)(C)C)c1cccnc1 (centres undefined) |  | 0.99 | 0.95 | -1.08 | 8.24 | 0 |  |  |

| Compound | inhibition ([1]; 50.0 µM) [%] | relative solubility at 20 uM | relative solubility at 100 uM | inhibition ([2]; 20.0 µM) [%] | inhibition ([2]; 50.0 µM) [%] | inhibition ([1]; 20.0 µM) [%] | IC50 [1] [µM] | IC50 [2] [µM] |
| --- | --- | --- | --- | --- | --- | --- | --- | --- |
| O=C(CNc1c(-c2ccccc2)nc2ccccn12)N/N=C/c1cccc2ccccc12 | 7.53 | 0.5 | 0.5 | 13.8 | 17.8 |  |  |  |
| O=S(=O)(NC1(Cc2ccccc2)CCOCC1)c1cccnc1 | 11.6 | 1 | 1 | -34.8 | 3.06 |  |  |  |
| C=CC(=O)N(c1ccc(C2(C)CC2)cc1)C(C(=O)Nc1ccc(OC)cc1C)c1cccnc1 (centres undefined) | 0 | 1 | 0.52 |  | 6.08 | 0 |  |  |
| C=CC(=O)N(c1ccc2ncsc2c1)C(C(=O)Nc1ccc(OC)cc1)c1cccnc1 (centres undefined) |  | 0.92 | 0.87 | 4.02 | 15.4 | 0 |  |  |
| C=CC(=O)N(c1ccc(C(C)(C)C)cc1)C(C(=O)NC(C)(C)C)c1cccnc1C (centres undefined) | 0 | 0.99 | 0.99 | -1.34 | 2.24 | 0 |  |  |
| O=C(C1CCN(S(=O)(=O)c2ccccc2)CC1)N1CCOCC1 | 0 | 1 | 0.99 | 1.87 | 5.52 | 0 |  |  |
| Cc1ccc(C)c(S(=O)(=O)N2CCN(C(=O)CCl)CC2)c1 | 96.3 | 0.99 | 0.98 |  | 101 | 90.8 |  |  |
| N#Cc1ccc(CNC(=O)Cc2c[nH]c3ncccc23)nc1 |  | 1 | 1 | 4.15 | 0.616 | 0 |  |  |
| C=CC(=O)N(c1cc(C)cc(N)c1)C(C(=O)NC(C)(C)C)c1cccnc1 (centres undefined) | 0 | 0.99 | 0.98 | -15.1 | -19.4 | 0 |  |  |
| C=CC(=O)Nc1cccc(OC2CC(=O)N2)c1 (centres undefined) | 2.88 | 1 | 1 | 5.39 | 2.19 |  |  |  |
| O=C(Nc1ccccc1)c1cc(Cl)ccc1O |  | 1 | 0.89 | 3.75 | 8.41 | 0 |  |  |
| C=CC(=O)N(c1ccc(C(C)OC)cc1)C(C(=O)NC(C)(C)C)c1cccnc1 (centres undefined) |  | 0.98 | 0.86 | 7.07 | 15.9 | 0 |  |  |
| Cc1ccncc1NC(=O)Cc1cncc(Cl)c1 | 71.4 | 1 | 1.01 | 28.8 | 46 |  |  |  |
| O=C(COc1ccccc1)NCCc1ccccc1 | 0 | 1 | 1 | -0.178 | -0.0738 | 0 |  |  |
| COc1ncccc1N(C)C(=O)C1CCOc2ccc(Cl)cc21 (centres undefined) | 0 | 1 | 0.98 | -2.61 | 2.54 |  |  |  |
| Cc1c(C(=O)NC(CC(=O)O)c2cccc(Cl)c2)cnc2ccccc12 (centres undefined) | 8.52 | 1 | 1 | -13 | 6.12 |  |  |  |
| NS(=O)(=O)c1ccc(C(=O)N2Cc3ccccc3C(c3ccccc3)C2)cc1 (centres undefined) |  | 0.95 | 0.96 | 0.809 | 8.23 | 0 |  |  |
| C=CC(=O)N(c1ccc(C(C)(C)C)cc1)C(C(=O)NCc1cccnc1)c1cccnc1 (centres undefined) | 61.3 | 1 | 0.96 | 41.2 | 59.3 | 18.2 |  |  |
| Cc1ccncc1NC(=O)C12CC(CO1)C2 | 0 | 1 | 1 | -0.804 | 12.2 |  |  |  |
